Test in all cases: Bliss interaction score (quartile over a dose matrix) (fitness difference); higher = more antagonism (negative = synergy)
One assay has as its system S. aureus DSM 20231. An outline of the steps:
(§1)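 Fitness was defined as normalised growth: OD595 at the start of stationary phase divided by the plate's robust no-drug mean and capped at 1. Single-drug fitness was inferred from combination measurements. The Bliss score is observed fitness minus the product of the single-drug values, summarised by quartiles across technical, biological and donor/recipient replicates.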

Another assay concerns S. aureus Newman. The gist of the method: as §1
For a further assay, the system named is B. subtilis 168. The gist of the method:
as §1

A further assay deals with S. pneumoniae D39V. An outline of the steps: as §1
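Note: first quartile when negative (synergy) and third quartile when positive (antagonism).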

With `CO/N=C(\C(=O)N[C@@H]1C(=O)N2C(C(=O)O)=C(COC(C)=O)CS[C@H]12)c1csc(N)n1` [Cefotaxime] + CN[C@H](CC(C)C)C(=O)N[C@H]1C(=O)N[C@@H](CC(N)=O)C(=O)N[C@H]2C(=O)N[C@H]3C(=O)N[C@H](C(=O)N[C@H](C(=O)O)c4cc(O)cc(O)c4-c4cc3ccc4O)[C@H](O[C@H]3C[C@](C)(N)[C@@H](O)[C@H](C)O3)c3ccc(c(Cl)c3)Oc3cc2cc(c3O[C@@H]2O[C@H](CO)[C@@H](O)[C@H](O)[C@H]2O[C@H]2C[C@](C)(NCc3ccc(-c4ccc(Cl)cc4)cc3)[C@@H](O)[C@H](C)O2)Oc2ccc(cc2Cl)[C@H]1O [Oritavancin], the Bliss interaction score in the assay with S. aureus DSM 20231 was 0.0947; with S. aureus Newman it was 0.0965; with B. subtilis 168, 0.0516; in the assay with S. pneumoniae D39V, -0.106.

Regarding `CO/N=C(\C(=O)N[C@@H]1C(=O)N2C(C(=O)O)=C(COC(C)=O)CS[C@H]12)c1csc(N)n1` [Cefotaxime] + CO[C@@]12[C@H](COC(N)=O)C3=C(C(=O)C(C)=C(N)C3=O)N1C[C@@H]1N[C@@H]12 [MitomycinC], the Bliss interaction score in the assay with S. aureus DSM 20231 is 0.0387; in the assay with S. aureus Newman it was 0.0256; with B. subtilis 168, -0.135; in the assay on S. pneumoniae D39V it was 0.118.

As to `CO/N=C(\C(=O)N[C@@H]1C(=O)N2C(C(=O)O)=C(COC(C)=O)CS[C@H]12)c1csc(N)n1` [Cefotaxime] + N[C@@H]1CONC1=O [CycloserineD], the Bliss interaction score is 0.0848 in the assay with S. aureus DSM 20231, 0.0643 with S. aureus Newman, 0.0869 with B. subtilis 168 and -0.0787 in the assay with S. pneumoniae D39V.

`CO/N=C(\C(=O)N[C@@H]1C(=O)N2C(C(=O)O)=C(COC(C)=O)CS[C@H]12)c1csc(N)n1` [Cefotaxime] + O=C(N[C@H](CO)[C@H](O)c1ccc([N+](=O)[O-])cc1)C(Cl)Cl [Chloramphenicol]: the Bliss interaction score is 0.106 with S. aureus DSM 20231, -0.0902 in the assay with S. aureus Newman, -0.0771 in the assay on B. subtilis 168 and 0.158 in the assay with S. pneumoniae D39V.

Turning to `CO/N=C(\C(=O)N[C@@H]1C(=O)N2C(C(=O)O)=C(COC(C)=O)CS[C@H]12)c1csc(N)n1` [Cefotaxime] + O=C(O)[C@H]1/C(=C/CO)O[C@@H]2CC(=O)N21 [Clavulanic], the Bliss interaction score in the assay on S. aureus DSM 20231 is 0.176; with S. aureus Newman, 0.279; in the assay on B. subtilis 168, -0.0436; with S. pneumoniae D39V, -0.0534.

Consider `CO/N=C(\C(=O)N[C@@H]1C(=O)N2C(C(=O)O)=C(COC(C)=O)CS[C@H]12)c1csc(N)n1` [Cefotaxime] + O=C(O)c1cn(C2CC2)c2cc(N3CCNCC3)c(F)cc2c1=O [Ciprofloxacin], for which the Bliss interaction score with S. aureus DSM 20231 is -0.0413; in the assay with S. aureus Newman, 0.0294; in the assay on B. subtilis 168 it was -0.144; in the assay on S. pneumoniae D39V, 0.154.

On to `CO/N=C(\C(=O)N[C@@H]1C(=O)N2C(C(=O)O)=C(COC(C)=O)CS[C@H]12)c1csc(N)n1` [Cefotaxime] + Oc1cc(Cl)ccc1Oc1ccc(Cl)cc1Cl [Triclosan], for which the Bliss interaction score was 0.0696 in the assay with S. aureus DSM 20231, 0.033 with S. aureus Newman, 0.0558 in the assay with B. subtilis 168 and -0.0421 in the assay with S. pneumoniae D39V.

Turning to `CO/N=C(\C(=O)N[C@@H]1C(=O)N2C(C(=O)O)=C(COC(N)=O)CS[C@H]12)c1ccco1` [Cefuroxime] + CC1(C)S[C@@H]2[C@H](NC(=O)Cc3ccccc3)C(=O)N2[C@H]1C(=O)O [PenicillinG], the Bliss interaction score was -0.154 with S. aureus DSM 20231, 0.102 with S. aureus Newman, -0.0758 with B. subtilis 168 and -0.0476 in the assay with S. pneumoniae D39V.

Consider `CO/N=C(\C(=O)N[C@@H]1C(=O)N2C(C(=O)O)=C(COC(N)=O)CS[C@H]12)c1ccco1` [Cefuroxime] + CC(=O)O[C@H]1C[C@@]2(C)[C@@H](C[C@@H](O)[C@H]3[C@@]4(C)CC[C@@H](O)[C@@H](C)[C@@H]4CC[C@@]32C)/C1=C(\CCC=C(C)C)C(=O)O [Fusidic acid], for which the Bliss interaction score in the assay with S. aureus DSM 20231 is -0.281; with S. aureus Newman, 0.104; in the assay on B. subtilis 168, 0.137; with S. pneumoniae D39V, 0.0348.

For `CO/N=C(\C(=O)N[C@@H]1C(=O)N2C(C(=O)O)=C(COC(N)=O)CS[C@H]12)c1ccco1` [Cefuroxime] + CCC[C@@H]1C[C@@H](C(=O)N[C@@H]([C@H]2O[C@H](SC)[C@H](O)[C@@H](O)[C@H]2O)[C@H](C)Cl)N(C)C1 [Clindamycin], the Bliss interaction score in the assay with S. aureus DSM 20231 was -0.156; in the assay with S. aureus Newman it was -0.0892; in the assay with B. subtilis 168 it was -0.048; in the assay with S. pneumoniae D39V it was 0.0539.

With `CO/N=C(\C(=O)N[C@@H]1C(=O)N2C(C(=O)O)=C(COC(N)=O)CS[C@H]12)c1ccco1` [Cefuroxime] + CC[C@H]1OC(=O)[C@H](C)C(=O)[C@H](C)[C@@H](O[C@@H]2O[C@H](C)C[C@H](N(C)C)[C@H]2O)[C@](C)(OC)C[C@@H](C)C(=O)[C@H](C)[C@H]2N(CCCCn3cnc(-c4cccnc4)c3)C(=O)O[C@]12C [Telithromycin], the Bliss interaction score was -0.0813 in the assay on S. aureus DSM 20231, 0.272 with S. aureus Newman, 0.0752 in the assay on B. subtilis 168 and 0.0493 with S. pneumoniae D39V.

Take `CO/N=C(\C(=O)N[C@@H]1C(=O)N2C(C(=O)O)=C(COC(N)=O)CS[C@H]12)c1ccco1` [Cefuroxime] + CC[C@H]1OC(=O)[C@H](C)[C@@H](O[C@H]2C[C@@](C)(OC)[C@@H](O)[C@H](C)O2)[C@H](C)[C@@H](O[C@@H]2O[C@H](C)C[C@H](N(C)C)[C@H]2O)[C@](C)(O)C[C@@H](C)C(=O)[C@H](C)[C@@H](O)[C@]1(C)O [Erythromycin]: the Bliss interaction score with S. aureus DSM 20231 is -0.255; in the assay with S. aureus Newman, 0.0555; in the assay with B. subtilis 168, -0.0464; with S. pneumoniae D39V, 0.0365.

`CO/N=C(\C(=O)N[C@@H]1C(=O)N2C(C(=O)O)=C(COC(N)=O)CS[C@H]12)c1ccco1` [Cefuroxime] + CC[C@H]1OC(=O)[C@H](C)[C@@H](O[C@H]2C[C@@](C)(OC)[C@@H](O)[C@H](C)O2)[C@H](C)[C@@H](O[C@@H]2O[C@H](C)C[C@H](N(C)C)[C@H]2O)[C@](C)(OC)C[C@@H](C)C(=O)[C@H](C)[C@@H](O)[C@]1(C)O [Clarithromycin]: the Bliss interaction score in the assay with S. aureus DSM 20231 was -0.249; in the assay with S. aureus Newman it was 0.0734; with B. subtilis 168, -0.0354; in the assay on S. pneumoniae D39V, 0.0629.

Consider `CO/N=C(\C(=O)N[C@@H]1C(=O)N2C(C(=O)O)=C(COC(N)=O)CS[C@H]12)c1ccco1` [Cefuroxime] + CN(C)[C@@H]1C(O)=C(C(N)=O)C(=O)[C@@]2(O)C(O)=C3C(=O)c4c(O)ccc(Cl)c4[C@@](C)(O)[C@H]3C[C@@H]12 [Clortetracycline], for which the Bliss interaction score in the assay on S. aureus DSM 20231 is -0.269; in the assay on S. aureus Newman, -0.0677; with B. subtilis 168, -0.0786; in the assay with S. pneumoniae D39V it was 0.112.

As for `CO/N=C(\C(=O)N[C@@H]1C(=O)N2C(C(=O)O)=C(COC(N)=O)CS[C@H]12)c1ccco1` [Cefuroxime] + CN[C@H](CC(C)C)C(=O)N[C@H]1C(=O)N[C@@H](CC(N)=O)C(=O)N[C@H]2C(=O)N[C@H]3C(=O)N[C@H](C(=O)N[C@H](C(=O)O)c4cc(O)cc(O)c4-c4cc3ccc4O)[C@H](O[C@H]3C[C@](C)(N)[C@@H](O)[C@H](C)O3)c3ccc(c(Cl)c3)Oc3cc2cc(c3O[C@@H]2O[C@H](CO)[C@@H](O)[C@H](O)[C@H]2O[C@H]2C[C@](C)(NCc3ccc(-c4ccc(Cl)cc4)cc3)[C@@H](O)[C@H](C)O2)Oc2ccc(cc2Cl)[C@H]1O [Oritavancin], the Bliss interaction score with S. aureus DSM 20231 is -0.0743; in the assay with S. aureus Newman it was -0.103; with B. subtilis 168, -0.0309; in the assay on S. pneumoniae D39V, 0.0536.

These data come from the supplement of paper PMC10627819.
